Calls of active or inactive are those of the source. No cut-off for these calls is given here.
Legend:
U2OS = assay: Antiproliferative activity against human U2OS cells assessed as reduction in cell viability up to 30 uM incubated for 72 hrs by CellTiter-Glo luminescent assay; assay type: functional, cell-based
[1] = target: T1, Ubiquitin carboxyl-terminal hydrolase 2 (Homo sapiens) (UniProt O75604); assay: Inhibition of human USP2 (251 to 605 residues) expressed in Escherichia coli BL21 (DE3) using ubiquitin rhodamine 110 as substrate assessed as remaining enzyme activity at 10 to 50 uM by fluorometric assay; settings: dose 10-50 µM
T1 sequence (whole entry): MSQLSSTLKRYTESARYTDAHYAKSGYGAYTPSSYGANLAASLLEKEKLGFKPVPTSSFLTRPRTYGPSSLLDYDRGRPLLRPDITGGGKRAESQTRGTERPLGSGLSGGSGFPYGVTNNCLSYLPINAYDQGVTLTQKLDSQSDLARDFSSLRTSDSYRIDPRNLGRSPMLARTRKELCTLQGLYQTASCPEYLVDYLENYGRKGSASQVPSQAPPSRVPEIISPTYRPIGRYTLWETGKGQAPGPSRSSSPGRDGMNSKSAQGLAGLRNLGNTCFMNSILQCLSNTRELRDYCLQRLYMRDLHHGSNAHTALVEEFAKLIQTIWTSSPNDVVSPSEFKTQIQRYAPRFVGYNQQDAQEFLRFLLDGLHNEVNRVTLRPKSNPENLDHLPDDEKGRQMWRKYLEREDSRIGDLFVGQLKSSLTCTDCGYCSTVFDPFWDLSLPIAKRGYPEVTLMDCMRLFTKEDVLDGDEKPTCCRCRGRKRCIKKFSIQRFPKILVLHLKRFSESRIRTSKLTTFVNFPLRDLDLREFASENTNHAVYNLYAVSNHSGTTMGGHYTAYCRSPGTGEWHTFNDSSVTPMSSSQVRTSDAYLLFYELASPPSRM

[2] = target: Ubiquitin carboxyl-terminal hydrolase 7 (Homo sapiens) (UniProt Q93009); assay: Inhibition of human USP7 (1 to 1102 residues) expressed in Sf9 cells using ubiquitin rhodamine 110 as substrate assessed as remaining enzyme activity at 10 to 50 uM by fluorometric assay; settings: dose 10-50 µM
[3] = target: T2, Ubiquitin carboxyl-terminal hydrolase 22 (Homo sapiens) (UniProt Q9UPT9); assay: Inhibition of human USP22 (1 to 525 residues) expressed in Sf9 cells using ubiquitin rhodamine 110 as substrate assessed as remaining enzyme activity at 10 to 50 uM by fluorometric assay; settings: dose 10-50 µM
T2 sequence (whole entry): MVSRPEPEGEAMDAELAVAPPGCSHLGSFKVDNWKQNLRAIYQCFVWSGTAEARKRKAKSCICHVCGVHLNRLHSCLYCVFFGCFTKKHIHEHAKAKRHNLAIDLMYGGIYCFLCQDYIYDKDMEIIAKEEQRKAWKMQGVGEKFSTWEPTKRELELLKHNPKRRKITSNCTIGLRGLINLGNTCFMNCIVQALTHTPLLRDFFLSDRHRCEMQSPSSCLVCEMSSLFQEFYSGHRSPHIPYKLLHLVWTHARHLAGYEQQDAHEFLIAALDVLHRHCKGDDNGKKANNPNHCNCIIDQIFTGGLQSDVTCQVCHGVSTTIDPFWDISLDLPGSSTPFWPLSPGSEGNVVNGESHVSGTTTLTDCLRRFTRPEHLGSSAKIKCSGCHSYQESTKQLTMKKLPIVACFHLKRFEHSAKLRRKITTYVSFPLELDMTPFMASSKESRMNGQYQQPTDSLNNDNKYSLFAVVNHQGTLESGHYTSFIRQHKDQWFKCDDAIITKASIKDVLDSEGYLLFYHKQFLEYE

[4] = target: T3, Ubiquitin carboxyl-terminal hydrolase 5 (Homo sapiens) (UniProt P45974); assay: Inhibition of human USP5 (1 to 835 residues) expressed in Sf9 cells using ubiquitin rhodamine 110 as substrate assessed as remaining enzyme activity at 10 to 50 uM by fluorometric assay; settings: dose 10-50 µM
T3 sequence (whole entry): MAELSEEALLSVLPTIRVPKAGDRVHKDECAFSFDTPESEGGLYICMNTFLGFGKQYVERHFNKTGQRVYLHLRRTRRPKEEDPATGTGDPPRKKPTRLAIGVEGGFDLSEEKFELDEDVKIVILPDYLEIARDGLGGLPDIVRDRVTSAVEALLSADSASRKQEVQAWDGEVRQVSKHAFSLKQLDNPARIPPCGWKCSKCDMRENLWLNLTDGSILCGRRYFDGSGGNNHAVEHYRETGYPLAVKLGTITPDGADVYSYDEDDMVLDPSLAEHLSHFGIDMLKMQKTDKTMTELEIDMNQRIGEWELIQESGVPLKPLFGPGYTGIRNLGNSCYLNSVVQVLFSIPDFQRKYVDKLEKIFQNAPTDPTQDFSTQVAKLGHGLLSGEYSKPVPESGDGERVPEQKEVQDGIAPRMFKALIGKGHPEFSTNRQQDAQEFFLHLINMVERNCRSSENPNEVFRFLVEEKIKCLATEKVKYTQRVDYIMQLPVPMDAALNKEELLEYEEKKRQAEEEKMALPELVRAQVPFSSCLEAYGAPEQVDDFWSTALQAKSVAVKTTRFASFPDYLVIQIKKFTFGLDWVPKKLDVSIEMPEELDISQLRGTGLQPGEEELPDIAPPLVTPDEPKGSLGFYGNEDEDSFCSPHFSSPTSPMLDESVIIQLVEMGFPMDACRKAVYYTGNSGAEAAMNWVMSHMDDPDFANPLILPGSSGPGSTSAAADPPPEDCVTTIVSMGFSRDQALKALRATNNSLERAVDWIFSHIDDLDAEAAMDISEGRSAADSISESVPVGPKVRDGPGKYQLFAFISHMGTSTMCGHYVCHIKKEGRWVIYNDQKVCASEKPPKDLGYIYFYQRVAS

Sequence of Ubiquitin carboxyl-terminal hydrolase 7 (Homo sapiens) (Q93009 whole entry, looked up, the tested form may be a part): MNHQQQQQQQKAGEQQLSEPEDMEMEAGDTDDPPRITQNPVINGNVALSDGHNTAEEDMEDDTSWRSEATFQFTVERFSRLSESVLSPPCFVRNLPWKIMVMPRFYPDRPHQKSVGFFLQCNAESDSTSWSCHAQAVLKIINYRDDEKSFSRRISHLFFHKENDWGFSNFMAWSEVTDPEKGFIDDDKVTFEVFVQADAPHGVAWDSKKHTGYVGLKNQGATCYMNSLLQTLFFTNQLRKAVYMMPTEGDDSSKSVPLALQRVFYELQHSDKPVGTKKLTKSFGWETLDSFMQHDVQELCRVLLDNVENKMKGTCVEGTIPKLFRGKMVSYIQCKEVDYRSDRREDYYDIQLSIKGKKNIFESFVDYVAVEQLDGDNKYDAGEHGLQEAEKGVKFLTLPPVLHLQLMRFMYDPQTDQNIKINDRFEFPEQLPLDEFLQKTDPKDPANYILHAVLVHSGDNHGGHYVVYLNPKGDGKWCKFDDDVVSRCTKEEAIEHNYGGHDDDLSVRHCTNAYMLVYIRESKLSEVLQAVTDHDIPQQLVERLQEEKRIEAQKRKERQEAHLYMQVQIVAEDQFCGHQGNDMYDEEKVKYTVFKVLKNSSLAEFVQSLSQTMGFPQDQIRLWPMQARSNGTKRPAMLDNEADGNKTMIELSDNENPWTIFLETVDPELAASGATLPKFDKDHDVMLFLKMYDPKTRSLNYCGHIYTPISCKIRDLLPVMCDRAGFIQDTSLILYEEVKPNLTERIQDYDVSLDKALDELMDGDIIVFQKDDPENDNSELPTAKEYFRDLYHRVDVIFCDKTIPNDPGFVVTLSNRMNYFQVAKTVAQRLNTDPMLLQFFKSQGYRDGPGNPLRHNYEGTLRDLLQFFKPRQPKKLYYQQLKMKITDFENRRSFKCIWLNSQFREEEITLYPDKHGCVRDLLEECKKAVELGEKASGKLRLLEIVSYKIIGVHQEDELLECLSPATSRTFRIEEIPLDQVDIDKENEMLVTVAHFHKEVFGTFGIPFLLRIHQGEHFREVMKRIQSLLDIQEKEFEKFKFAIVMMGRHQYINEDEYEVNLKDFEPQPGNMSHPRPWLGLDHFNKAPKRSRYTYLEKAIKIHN

Activity [1] [%] | Activity [2] [%] | Activity [3] [%] | Activity [4] [%] | SMILES | Activity (U2OS)
– | – | – | – | CC(C)C[C@H](NC(=O)C1(C(F)(F)F)CCCCC1)C(=O)Nc1nnc(Cc2ccc(C#N)cc2)s1 | inactive
< 50 | < 50 | < 50 | < 50 | CC(NC(=O)C1CCCC1)C(=O)Nc1nnc(Cc2ccc([N+](=O)[O-])cc2)s1 (racemic) | –
